The text below walks through data of patent US9085555B2, “Complement pathway modulators and uses thereof” (priority 2011, dated 2015).

The assay deals with Factor D (Homo sapiens (Human), UniProt P00746). Briefly: biochemical. The following applies: read-out: IC50. It is filed as biochemical.

Where a name gives a salt, the structure may show the parent alone.

Factor D, sequence (P00746 26-253): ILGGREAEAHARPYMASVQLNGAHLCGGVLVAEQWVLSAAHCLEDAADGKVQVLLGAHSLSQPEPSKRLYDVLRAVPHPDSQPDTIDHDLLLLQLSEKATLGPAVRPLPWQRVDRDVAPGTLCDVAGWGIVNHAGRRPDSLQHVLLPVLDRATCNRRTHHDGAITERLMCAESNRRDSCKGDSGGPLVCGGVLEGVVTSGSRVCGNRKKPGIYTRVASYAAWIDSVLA

For orientation: IC50 means the point on the concentration scale where inhibition reaches its midpoint. For the molecule `CO[C@H]1[C@@H](C(=O)NCc2cccc(Cl)c2F)N(C(=O)Cn2nc(C(C)=O)c3cnccc32)C[C@@H]1F` [Example 630, (2S,3S,4S)-1-[2-(3-Acetyl-pyrazolo[4,3-c]pyridin-1-yl)-acetyl]-4-fluoro-3-methoxy-pyrrolidine-2-carboxylic acid 3-chloro-2-fluoro-benzylamide], the IC50 came to 36 nM.
With `CO[C@H]1[C@@H](C(=O)NC2(c3cccc(Cl)c3F)CC2)N(C(=O)Cn2nc(C(C)=O)c3ccncc32)C[C@@H]1F` [Example 631, (2S,3S,4S)-1-[2-(3-Acetyl-pyrazolo[3,4-c]pyridin-1-yl)-acetyl]-4-fluoro-3-methoxy-pyrrolidine-2-carboxylic acid [1-(3-chloro-2-fluoro-phenyl)-cyclopropyl]-amide] the figure was 11 nM; with `COC(=O)c1ccc2c(C(C)=O)nn(CC(=O)N3[C@@H]4C[C@@H]4C[C@H]3C(=O)NCc3cccc(Cl)c3F)c2c1` [Example 632, 3-Acetyl-1-{2-[(1R,3S,5R)-3-(3-chloro-2-fluoro-benzylcarbamoyl)-2-aza-bicyclo [3.1.0]hex-2-yl]-2-oxo-ethyl}-1H-indazole-6-carboxylic acid methyl ester], 18 nM.
Under `CC(=O)c1nn(CC(=O)N2[C@@H]3C[C@@H]3C[C@H]2C(=O)NC2(c3cccc(Cl)c3F)COC2)c2ncccc12` [Example 633, (1R,3S,5R)-2-[2-(3-Acetyl-pyrazolo[3,4-b]pyridin-1-yl)-acetyl]-2-aza-bicyclo [3.1.0]hexane-3-carboxylic acid [3-(3-chloro-2-fluoro-phenyl)-oxetan-3-yl]-amide] stands 55 nM.
With `CC(=O)c1cn(CC(=O)N2C[C@H](F)[C@@H](OCCN(C)C)[C@H]2C(=O)NCc2cccc(Cl)c2F)c2ccccc12` [Example 634, (2S,3S,4S)-1-[2-(3-Acetyl-indol-1-yl)-acetyl]-3-(2-dimethylamino-ethoxy)-4-fluoro-pyrrolidine-2-carboxylic acid 3-chloro-2-fluoro-benzylamide formate] the figure was 53 nM; with `CC(=O)c1nn(CC(=O)N2C[C@H](F)[C@@H](O)[C@H]2C(=O)NC2(c3cccc(Cl)c3F)CC2)c2cnccc12` [Example 635, (2S,3S,4S)-1-[2-(3-Acetyl-pyrazolo[3,4-c]pyridin-1-yl)-acetyl]-4-fluoro-3-hydroxy-pyrrolidine-2-carboxylic acid [1-(3-chloro-2-fluoro-phenyl)-cyclopropyl]-amide formate], 18 nM.
Turning to `CO[C@H]1[C@@H](C(=O)Nc2cccc(OC(F)(F)F)c2F)N(C(=O)Cn2nc(C(N)=O)c3cc(C)ncc32)C[C@@H]1F` [Example 636, 1-{2-[(2S,3S,4S)-4-Fluoro-2-(2-fluoro-3-trifluoromethoxy-phenylcarbamoyl)-3-methoxy-pyrrolidin-1-yl]-2-oxo-ethyl}-5-methyl-1H-pyrazolo[3,4-c]pyridine-3-carboxylic acid amide triflate], the IC50 was determined as 13 nM.
Under `CCc1cc2c(C(N)=O)nn(CC(=O)N3C[C@H](F)[C@@H](OC)[C@H]3C(=O)Nc3cccc(OC(F)(F)F)c3F)c2cn1` [Example 637, 5-Ethyl-1-{2-[(2S,3S,4S)-4-fluoro-2-(2-fluoro-3-trifluoromethoxy-phenylcarbamoyl)-3-methoxy-pyrrolidin-1-yl]-2-oxo-ethyl}-1H-pyrazolo[3,4-c]pyridine-3-carboxylic acid amide triflate] stands 9 nM.
Under `CO[C@H]1[C@@H](C(=O)Nc2cccc(OC(F)(F)F)c2F)N(C(=O)Cn2nc(C(C)=O)c3cc(OCc4ncccn4)ccc32)C[C@@H]1F` [Example 638, (2S,3S,4S)-1-{2-[3-Acetyl-5-(pyrimidin-2-ylmethoxy)-indazol-1-yl]-acetyl}-4-fluoro-3-methoxy-pyrrolidine-2-carboxylic acid (2-fluoro-3-trifluoromethoxy-phenyl)-amide] stands 5 nM; under `CC(=O)c1nn(CC(=O)N2[C@@H]3C[C@@H]3C[C@H]2C(=O)NCc2cccc(Cl)c2F)c2cc(C(=O)O)ccc12` [Example 639, 3-Acetyl-1-{2-[(1R,3S,5R)-3-(3-chloro-2-fluoro-benzylcarbamoyl)-2-aza-bicyclo[3.1.0]hex-2-yl]-2-oxo-ethyl}-1H-indazole-6-carboxylic acid], 62 nM.
As for `CO[C@H]1[C@@H](C(=O)NCc2cccc(Cl)c2F)N(C(=O)Cn2nc(C(C)=O)c3ccc(C(=O)O)cc32)C[C@@H]1F` [Example 640, 3-Acetyl-1-{2-[(2S,3S,4S)-2-(3-chloro-2-fluoro-benzylcarbamoyl)-4-fluoro-3-methoxy-pyrrolidin-1-yl]-2-oxo-ethyl}-1H-indazole-6-carboxylic acid], the IC50 was determined as 8 nM.
Under `CC(=O)c1cn(CC(=O)N2[C@@H]3C[C@@H]3C[C@H]2C(=O)N[C@H](C)c2cccc(Cl)c2F)c2cnccc12` [Example 641, (1R,3S,5R)-2-[2-(3-Acetyl-pyrrolo[2,3-c]pyridin-1-yl)-acetyl]-2-aza-bicyclo[3.1.0]hexane-3-carboxylic acid [(R)-1-(3-chloro-2-fluoro-phenyl)-ethyl]-amide] stands 32 nM; under `CC(=O)c1nn(CC(=O)N2[C@@H]3C[C@@H]3C[C@H]2C(=O)N[C@H](CCN(C)C)c2cccc(Cl)c2F)c2ccccc12` [Example 642, (1R,3S,5R)-2-[2-(3-Acetyl-indazol-1-yl)-acetyl]-2-aza-bicyclo[3.1.0]hexane-3-carboxylic acid [(R)-1-(3-chloro-2-fluoro-phenyl)-3-dimethylamino-propyl]-amide], 15 nM.
Under `CO[C@H]1[C@@H](C(=O)N[C@H](C)c2cccc(Cl)c2F)N(C(=O)Cn2nc(C(N)=O)c3cccnc32)C[C@@H]1F` [Example 643, 1-(2-{(2S,3S,4S)-2-[(R)-1-(3-Chloro-2-fluoro-phenyl)-ethylcarbamoyl]-4-fluoro-3-methoxy-pyrrolidin-1-yl}-2-oxo-ethyl)-1H-pyrazolo[3,4-b]pyridine-3-carboxylic acid amide] stands 25 nM; under `CC(=O)c1nc(CC(=O)N2[C@@H]3C[C@@H]3C[C@H]2C(=O)N[C@H](CO)c2cccc(Cl)c2F)n2ccccc12` [Example 644, (1R,3S,5R)-2-[2-(1-Acetyl-imidazo[1,5-a]pyridin-3-yl)-acetyl]-2-aza-bicyclo [3.1.0]hexane-3-carboxylic acid [(S)-1-(3-chloro-2-fluoro-phenyl)-2-hydroxy-ethyl]-amide], 79 nM.
`CCC(=O)c1cn(CC(=O)N2[C@@H]3C[C@@H]3C[C@H]2C(=O)NCc2cccc(Cl)c2F)c2cnccc12` [Example 645, (1R,3S,5R)-2-[2-(3-Propionyl-pyrrolo[2,3-c]pyridin-1-yl)-acetyl]-2-aza-bicyclo [3.1.0]hexane-3-carboxylic acid 3-chloro-2-fluoro-benzylamide]: the IC50 stood at 132 nM.
Under `CC(=O)c1cn(CC(=O)N2[C@@H]3C[C@@H]3C[C@H]2C(=O)NCc2cccc(Cl)c2F)c2cnc(C)cc12` [Example 646, (1R,3S,5R)-2-[2-(3-Acetyl-5-methyl-pyrrolo[2,3-c]pyridin-1-yl)-acetyl]-2-aza-bicyclo [3.1.0]hexane-3-carboxylic acid 3-chloro-2-fluoro-benzylamide] stands 12 nM.
Under `COc1cc2c(C(C)=O)nn(CC(=O)N3[C@@H]4C[C@@H]4C[C@H]3C(=O)NCc3cccc(Cl)c3F)c2cc1OC` [Example 647, (1R,3S,5R)-2-[2-(3-Acetyl-5,6-dimethoxy-indazol-1-yl)-acetyl]-2-aza-bicyclo [3.1.0]hexane-3-carboxylic acid 3-chloro-2-fluoro-benzylamide] stands 16 nM; under `CC(=O)c1cn(CC(=O)N2[C@@H]3C[C@@H]3C[C@H]2C(=O)NCc2cccc(Cl)c2F)c2ncncc12` [Example 649, (1R,3S,5R)-2-[2-(5-Acetyl-pyrrolo[2,3-d]pyrimidin-7-yl)-acetyl]-2-aza-bicyclo [3.1.0]hexane-3-carboxylic acid 3-chloro-2-fluoro-benzylamide], 441 nM; under `NC(=O)c1nn(CC(=O)N2[C@@H]3C[C@@H]3C[C@H]2C(=O)NCc2cccc(Cl)c2F)c2ccncc12` [Example 650, 1-{2-[(1R,3S,5R)-3-(3-Chloro-2-fluoro-benzylcarbamoyl)-2-aza-bicyclo[3.1.0]hex-2-yl]-2-oxo-ethyl}-1H-pyrazolo[4,3-c]pyridine-3-carboxylic acid amide], 22 nM.
For `Cc1cc2c(C(N)=O)nn(CC(=O)N3[C@@H]4C[C@@H]4C[C@H]3C(=O)NCc3cccc(Cl)c3F)c2cn1` [Example 651, 1-{2-[(1R,3S,5R)-3-(3-Chloro-2-fluoro-benzylcarbamoyl)-2-aza-bicyclo[3.1.0]hex-2-yl]-2-oxo-ethyl}-5-methyl-1H-pyrazolo[3,4-c]pyridine-3-carboxylic acid amide], the IC50 was found to be 21 nM.
`O=C(CO)c1nn(CC(=O)N2[C@@H]3C[C@@H]3C[C@H]2C(=O)NCc2cccc(Cl)c2F)c2ccccc12` [Example 652, (1R,3S,5R)-2-{2-[3-(2-Hydroxy-acetyl)-indazol-1-yl]-acetyl}-2-aza-bicyclo [3.1.0]hexane-3-carboxylic acid 3-chloro-2-fluoro-benzylamide]: the 50% inhibitory concentration (IC50) worked out at 19 nM.
Under `Cc1cc2c(cn1)c(C(N)=O)nn2CC(=O)N1[C@@H]2C[C@@H]2C[C@H]1C(=O)NCc1cccc(Cl)c1F` [Example 653, 1-{2-[(1R,3S,5R)-3-(3-Chloro-2-fluoro-benzylcarbamoyl)-2-aza-bicyclo[3.1.0]hex-2-yl]-2-oxo-ethyl}-6-methyl-1H-pyrazolo[4,3-c]pyridine-3-carboxylic acid amide] stands 47 nM; under `NC(=O)c1nn(CC(=O)N2[C@@H]3C[C@@H]3C[C@H]2C(=O)NCc2cccc(Cl)c2F)c2ncccc12` [Example 654, 1-{2-[(1R,3S,5R)-3-(3-Chloro-2-fluoro-benzylcarbamoyl)-2-aza-bicyclo[3.1.0]hex-2-yl]-2-oxo-ethyl}-1H-pyrazolo[3,4-b]pyridine-3-carboxylic acid amide], 18 nM.
Under `CC(=O)c1cn(CC(=O)N2[C@@H]3C[C@@H]3C[C@H]2C(=O)NCc2cccc(Cl)c2F)c2nnccc12` [Example 655, (1R,3S,5R)-2-[2-(5-Acetyl-pyrrolo[2,3-c]pyridazin-7-yl)-acetyl]-2-aza-bicyclo [3.1.0]hexane-3-carboxylic acid 3-chloro-2-fluoro-benzylamide] stands 91 nM.
